Source: patent publication US12655099B2, “Substituted phenyl sulfide compound and application thereof” (SHENYANG SINOCHEM AGROCHEMICALS R&D CO., LTD., priority 2020, dated 2026)

How the values were obtained:
[1] = system: Egg of Spider Mite (Tetranychus Cinnabarinus); assay: Activity against egg of spider mite, POTTER spray tower, incubation inhibition; assay type: in vivo; conditions: spider mite eggs; for inhibition at 1.25 µg/mL: Tetranychus cinnabarinus, read-out: Inhibition Rate (%)
Experimental: According to the solubility of test compounds, the compounds were dissolved with acetone or dimethyl sulfoxide, and then diluted with 0.1% aqueous solution of Tween 80 to form 50 ml test liquid and the content of the acetone or the dimethyl sulfoxide in the total solution was not more than 10% for later use. The leaves of bean were chopped into leaf discs and put into a petri dish. Female adult mites were inoculated. After laying eggs, the female adult mites were removed. After the number of eggs were investigated, the solution of certain concentrations of test compounds were sprayed with a POTTER spray tower, for 2 mL per treatment, and blank control was set. When all eggs in the blank control were incubated, the number of eggs which were incubated and unincubated was recorded, and incubation inhibition rate of the eggs was calculated.

[2] = system: Adult Spider Mite (Tetranychus cinnabarinus); assay: Activity against adult spider mite, spray on bean leaves, mortality after 72 h; assay type: in vivo; conditions: adult spider mites
Experimental: According to the solubility of test compounds, the compounds were dissolved with acetone or dimethyl sulfoxide, and then diluted with 0.1% aqueous solution of Tween 80 to form 50 ml test liquid and the content of the acetone or the dimethyl sulfoxide in the total solution was not more than 10% for later use. The adult spider mites were put into two true leaves of bean plants. After the number of mites were investigated, the solution of certain concentrations of test compounds was sprayed by using a handheld Airbrush. Three replicates were set for each treatment. Then the leaves were maintained in standard observation room. After 72 h, the number of surviving mites were observed, and the mortality rate was calculated.

Panonychus citri = assay: Field trial against Panonychus citri on citrus trees; assay type: in vivo; conditions: spray, citrus tree
Experimental: The trial was carried out in the citrus orchard in Yibin City, Sichuan Province. The test sample was “Dekopon”. The test citrus trees were 4 years old and the planting density was more than 70 plants/mu. The test compounds 6 and 14 were set at two different doses of 50 mg/L and 100 mg/L.
As the positive controls, Spirodiclofen suspension agent was set at one dose of 100 mg/L, and Pyridaben wettable powder was set at one dose of 100 mg/L. The test method was spraying by using Pentium 3WBD-20 sprayer, each treatment repeated three times. The number of initial mites was investigated before spraying, and the number of surviving mites was checked and recorded. The number of surviving mites was investigated on the 3 days, 7 days, 14 days, 21 days and 30 days after spraying respectively. The decline rate of mite populationg was counted and the control efficiency was calculated.

Panonychus ulmi = assay: Field trial for controlling Panonychus ulmi on apple trees; assay type: in vivo; conditions: spray, apple tree
Experimental: The trial was carried out in the orchard of Research Institute of Pomology of Chinese Academy of Agricultural Sciences. The test sample was Starkrimson apple tree, which was 14 years old and the intervals between two plants was 2×4 m. The test compound 14 was set at two different doses of 50 mg/L and 100 mg/L, and Spirodiclofen suspension agent as the positive control was set at one dose of 50 mg/L. The test method was spraying by using the stretcher power sprayer, each treatment repeated three times. The number of initial mites was investigated before spraying, and the number of surviving mites was checked and recorded. The number of surviving mites was investigated on the 3 days, 7 days, 14 days and 21 days after spraying respectively. The decline rate of mite population was counted and the control efficiency was calculated.
[formula] • The field trial results for compound 14 against Panonychus ulmi (Xingcheng, Liaoning, May, 2018) were shown in Table 4.Table 4

two-spotted spider mites = conditions: concentration of 50 ppm; cited from earlier work
[3] = Tetranychus cinnabarinus, 1.25 mg/L

Q: With `Cc1cc(F)c(-c2cccc([N+](=O)[O-])c2)cc1SCC(F)(F)F` [Compound 5] as the compound, how does the “Inhibition Rate (%)” value ([1]; 0.625 mg/L) read?
A: Its value is 100%.

Q: What about the “Inhibition Rate (%)” value ([1]; 1.25 mg/L) of the same compound?
A: Its value is 100%.

Q: What about the “Mortality (%)” value ([2]; 0.625 mg/L) of the same compound?
A: Its value is 95.5%.

Q: And the “Mortality (%)” value ([2]; 1.25 mg/L)?
A: Its value is 100%.

Q: Which “Control efficiency (%) 3 days after pesticide application” value (“Control efficiency (%) 3 days” below) (Panonychus citri; 50 mg/L) does the source give for `Cc1cc(F)c(-c2cccc([N+](=O)[O-])c2)cc1[S+]([O-])CC(F)(F)F` (centres unmarked) [Compound 6] here?
A: Its value is 98.58%.

Q: What about the “Control efficiency (%) 7 days after pesticide application” value (“Control efficiency (%) 7 days” for short) (Panonychus citri; 50 mg/L) of the same compound?
A: Its value is 96.69%.

Q: What about the “Control efficiency (%) 14 days after pesticide application” value (from here on “Control efficiency (%) 14 days”) (Panonychus citri; 50 mg/L) of the same compound?
A: Its value is 99.28%.

Q: And the “Control efficiency (%) 21 days after pesticide application” value (shortened to “Control efficiency (%) 21 days”) (Panonychus citri; 50 mg/L)?
A: The value was 95.86%.

Q: And the “Control efficiency (%) 30 days after pesticide application” value (“Control efficiency (%) 30 days” below) (Panonychus citri; 50 mg/L)?
A: The value was 94.62%.

Q: What about the “Mortality (%)” value ([2]; 0.625 mg/L) of the same compound?
A: The value was 80.6%.

Q: What about the “Mortality (%)” value ([2]; 1.25 mg/L) of the same compound?
A: Its value is 97.6%.

Q: Which “Mortality (%)” value ([2]; 0.625 mg/L) does the source give for `O=[N+]([O-])c1cccc(-c2cc(SCC(F)(F)F)c(Cl)cc2F)c1` [Compound 8] here?
A: Its value is 65.2%.

Q: What about the “Mortality (%)” value ([2]; 1.25 mg/L) of the same compound?
A: Its value is 90.7%.

Q: Which “Inhibition Rate (%)” value ([1]; 0.625 mg/L) does the source give for `CSc1cccc(-c2cc(SCC(F)(F)F)c(C)cc2F)c1` [Compound 14] here?
A: The value was 65.3%.

Q: And the “Inhibition Rate (%)” value ([1]; 1.25 mg/L)?
A: The value was 95.8%.

Q: And the “Control efficiency (%) 3 days” value (Panonychus citri; 50 mg/L)?
A: Its value is 99.61%.

Q: And the “Control efficiency (%) 7 days” value (Panonychus citri; 50 mg/L)?
A: The value was 98.90%.

Q: What about the “Control efficiency (%) 14 days” value (Panonychus citri; 50 mg/L) of the same compound?
A: Its value is 99.08%.

Q: And the “Control efficiency (%) 21 days” value (Panonychus citri; 50 mg/L)?
A: Its value is 98.57%.

Q: What about the “Control efficiency (%) 30 days” value (Panonychus citri; 50 mg/L) of the same compound?
A: The value was 97.35%.

Q: And the “Control efficiency (%) 3 days” value (Panonychus ulmi; 50 mg/L)?
A: Its value is 92.2%.

Q: And the “Control efficiency (%) 7 days” value (Panonychus ulmi; 50 mg/L)?
A: Its value is 86.4%.

Q: What about the “Control efficiency (%) 14 days” value (Panonychus ulmi; 50 mg/L) of the same compound?
A: The value was 97.3%.

Q: And the “Control efficiency (%) 21 days” value (Panonychus ulmi; 50 mg/L)?
A: Its value is 93.2%.

Q: What about the “Control efficiency (%) 3 days” value (Panonychus ulmi; 100 mg/L) of the same compound?
A: The value was 94.4%.

Q: What about the “Control efficiency (%) 7 days” value (Panonychus ulmi; 100 mg/L) of the same compound?
A: The value was 96.6%.

Q: What about the “Control efficiency (%) 14 days” value (Panonychus ulmi; 100 mg/L) of the same compound?
A: Its value is 99.8%.

Q: And the “Control efficiency (%) 21 days” value (Panonychus ulmi; 100 mg/L)?
A: Its value is 99.1%.

Q: With `Cc1cc(F)c(-c2cccc(SCC(F)(F)F)c2)cc1SCC(F)(F)F` [Compound 19] as the compound, how does the “Inhibition Rate (%)” value ([1]; 0.625 mg/L) read?
A: Its value is 51.2%.

Q: What about the “Inhibition Rate (%)” value ([1]; 1.25 mg/L) of the same compound?
A: Its value is 81.1%.

Q: For `Cc1cc(F)c(-c2ccc(C(F)(F)F)cc2)cc1SCC(F)(F)F` [KC1, reference compound], which inhibition at 1.25 µg/mL ([1]; 1.25 mg/L) is on record?
A: The inhibition at 1.25 µg/mL was 26.2%.

Q: What about the mortality at 1.25 µg/mL [2, 3] of the same compound?
A: Its mortality at 1.25 µg/mL is 36.5%.

Q: Which inhibition at 1.25 µg/mL ([1]; 1.25 mg/L) does the source give for `Cc1cc(F)c(-c2cccc(C(F)(F)F)c2)cc1SCC(F)(F)F` [KC2, reference compound] here?
A: Its inhibition at 1.25 µg/mL is 36.7%.

Q: What about the mortality at 1.25 µg/mL [2, 3] of the same compound?
A: Its mortality at 1.25 µg/mL is 56.6%.

Q: With `Cc1cc(F)c(-c2cccc(OC(F)(F)F)c2)cc1SCC(F)(F)F` [KC3, reference compound] as the compound, how does the inhibition at 1.25 µg/mL ([1]; 1.25 mg/L) read?
A: Its inhibition at 1.25 µg/mL is 20.7%.

Q: What about the mortality at 1.25 µg/mL [2, 3] of the same compound?
A: The mortality at 1.25 µg/mL was 50.7%.

Q: Which inhibition at 1.25 µg/mL ([1]; 1.25 mg/L) does the source give for `Cc1cc(F)c(-c2cccc(SCc3ccccc3)c2)cc1SCC(F)(F)F` [KC4] here?
A: The inhibition at 1.25 µg/mL was 40.8%.

Q: And the lethal activity (two-spotted spider mites)?
A: The lethal activity was “more than 90%”.

Q: What about the mortality at 1.25 µg/mL [2, 3] of the same compound?
A: The mortality at 1.25 µg/mL was 16.4%.

Q: For `Cc1cc(F)c(-c2ccc([N+](=O)[O-])cc2)cc1SCC(F)(F)F` [KC5], which mortality at 0.625 µg/mL ([2]; Tetranychus cinnabarinus, 0.625 mg/L) is on record?
A: Its mortality at 0.625 µg/mL is 29.8%.

Q: And the mortality at 1.25 µg/mL [2, 3]?
A: The mortality at 1.25 µg/mL was 71.7%.

Q: With `Cc1cc(F)c(-c2ccccc2[N+](=O)[O-])cc1SCC(F)(F)F` [KC6] as the compound, how does the mortality at 1.25 µg/mL [2, 3] read?
A: The mortality at 1.25 µg/mL was 0%.

Q: With `CC(C)(C)c1ccc(CSc2cnn(C(C)(C)C)c(=O)c2Cl)cc1` [Pyridaben, reference compound] as the compound, how does the “Control efficiency (%) 3 days” value (Panonychus citri; 100 mg/L) read?
A: Its value is 80.24%.

Q: What about the “Control efficiency (%) 7 days” value (Panonychus citri; 100 mg/L) of the same compound?
A: Its value is 61.51%.

Q: What about the “Control efficiency (%) 14 days” value (Panonychus citri; 100 mg/L) of the same compound?
A: The value was 61.51%.

Q: And the “Control efficiency (%) 21 days” value (Panonychus citri; 100 mg/L)?
A: Its value is 51.62%.

Q: What about the “Control efficiency (%) 30 days” value (Panonychus citri; 100 mg/L) of the same compound?
A: Its value is 56.60%.

Q: Which “Control efficiency (%) 3 days” value (Panonychus citri; 100 mg/L) does the source give for `CCC(C)(C)C(=O)OC1=C(c2ccc(Cl)cc2Cl)C(=O)OC12CCCCC2` [Spirodiclofen, reference compound] here?
A: Its value is 91.09%.

Q: And the “Control efficiency (%) 7 days” value (Panonychus citri; 100 mg/L)?
A: The value was 80.88%.

Q: What about the “Control efficiency (%) 14 days” value (Panonychus citri; 100 mg/L) of the same compound?
A: Its value is 80.88%.

Q: And the “Control efficiency (%) 21 days” value (Panonychus citri; 100 mg/L)?
A: Its value is 72.63%.

Q: What about the “Control efficiency (%) 30 days” value (Panonychus citri; 100 mg/L) of the same compound?
A: The value was 73.60%.

Q: And the “Control efficiency (%) 3 days” value (Panonychus ulmi; 50 mg/L)?
A: Its value is 49.6%.

Q: And the “Control efficiency (%) 7 days” value (Panonychus ulmi; 50 mg/L)?
A: Its value is 45.8%.

Q: And the “Control efficiency (%) 14 days” value (Panonychus ulmi; 50 mg/L)?
A: The value was 90.3%.

Q: What about the “Control efficiency (%) 21 days” value (Panonychus ulmi; 50 mg/L) of the same compound?
A: Its value is 94.9%.
